Data published in ChEMBL document CHEMBL3593244, “Design, synthesis and preliminary bioactivity evaluations of substituted quinoline hydroxamic acid derivatives as novel histone deacetylase (HDAC) inhibitors” (Bioorg Med Chem, 2015).

What was measured:
[1] = target: Histone deacetylase (HDAC1 and HDAC2) (Homo sapiens, UniProt Q13547+Q92769); assay: Inhibition of HDAC1/2 in human HeLa cell nuclear extracts preincubated for 5 mins followed by substrate addition measured after 0.5 hrs by Color de Lys assay; assay type: cell-based
[2] = system: MDA-MB-231; assay: Cytotoxicity against human MDA-MB-231 cells assessed as inhibition of cell proliferation after 48 hrs by MTT assay; assay type: functional, cell-based; details: MDA-MB-231, 48 h
[3] = system: PC-3; assay: cells; assay type: functional, cell-based; details: Homo sapiens, PC-3, 48 h
Description: Cytotoxicity against human PC3 cells assessed as inhibition of cell proliferation after 48 hrs by MTT assay

[4] = system: K562; assay: cells; assay type: functional, cell-based; details: Homo sapiens, K562, 48 h
Description: Cytotoxicity against human K562 cells assessed as inhibition of cell proliferation after 48 hrs by MTT assay

[5] = system: A549; assay: cells; assay type: functional, cell-based; details: Homo sapiens, A549, 48 h
Description: Cytotoxicity against human A549 cells assessed as inhibition of cell proliferation after 48 hrs by MTT assay

Row | Structure (SMILES) | IC50 [1] [nM] | also measured
1 | O=C(CCCC(=O)NCc1cc(C(=O)NCc2ccccc2)c2ccccc2n1)NO | > 1000 | –
2 | O=C(CCCCC(=O)NCc1cc(C(=O)NCc2ccccc2)c2ccccc2n1)NO | > 1000 | –
3 | O=C(CCCCCC(=O)NCc1cc(C(=O)NCc2ccccc2)c2ccccc2n1)NO | 399 | –
4 | O=C(CCCCCCC(=O)NCc1cc(C(=O)NCc2ccccc2)c2ccccc2n1)NO | 780 | –
5 | O=C(CCCCCCCC(=O)NCc1cc(C(=O)NCc2ccccc2)c2ccccc2n1)NO | > 1000 | –
6 | O=C(CCCCCC(=O)NCc1cc(C(=O)Nc2ccccc2)c2ccccc2n1)NO | 301 | –
7 | O=C(CCCCCCC(=O)NCc1cc(C(=O)Nc2ccccc2)c2ccccc2n1)NO | 562 | –
8 | CCCCNC(=O)c1cc(CNC(=O)CCCCCC(=O)NO)nc2ccccc12 | 444 | –
9 | CCCCNC(=O)c1cc(CNC(=O)CCCCCCC(=O)NO)nc2ccccc12 | > 1000 | –
10 | CNC(=O)c1cc(CNC(=O)CCCCCC(=O)NO)nc2ccccc12 | 642 | –
11 | CNC(=O)c1cc(CNC(=O)CCCCCCC(=O)NO)nc2ccccc12 | > 1000 | –
12 | O=C(CCCCCC(=O)NCc1cc(C(=O)NCc2ccccc2)c2cc(Br)ccc2n1)NO | 343 | –
13 | O=C(CCCCCCC(=O)NCc1cc(C(=O)NCc2ccccc2)c2cc(Br)ccc2n1)NO | > 1000 | –
14 | O=C(CCCCCCCC(=O)NCc1cc(C(=O)NCc2ccccc2)c2cc(Br)ccc2n1)NO | > 1000 | –
15 | O=C(CCCCCC(=O)NCc1cc(C(=O)Nc2ccccc2)c2cc(Br)ccc2n1)NO | 196 | –
16 | O=C(CCCCCCC(=O)NCc1cc(C(=O)Nc2ccccc2)c2cc(Br)ccc2n1)NO | > 1000 | –
17 | O=C(CCCC(=O)NCc1ccc2ccccc2n1)NO | > 1000 | –
18 | O=C(CCCCC(=O)NCc1ccc2ccccc2n1)NO | > 1000 | –
19 | O=C(CCCCCC(=O)NCc1ccc2ccccc2n1)NO | 266 | –
20 | O=C(CCCCCCC(=O)NCc1ccc2ccccc2n1)NO | 678 | –
21 | O=C(CCCCCC(=O)NCc1ccc2cc(F)ccc2n1)NO | 155 | –
22 | O=C(CCCCCC(=O)NCc1ccc2cc(Cl)ccc2n1)NO | 120 | IC50 [2]: 1840 nM; IC50 [3]: 9130 nM; IC50 [4]: 3390 nM; IC50 [5]: 2710 nM
23 | O=C(CCCCCC(=O)NCc1ccc2cc(Br)ccc2n1)NO | 85 | IC50 [2]: 900 nM; IC50 [3]: 9260 nM; IC50 [4]: 4860 nM; IC50 [5]: 3890 nM
24 | O=C(CCCCCCC(=O)NCc1ccc2cc(Br)ccc2n1)NO | 146 | –
25 | O=C(CCCCCC(=O)NCc1ccc2cc(I)ccc2n1)NO | 132 | IC50 [2]: 1410 nM; IC50 [3]: 8480 nM; IC50 [4]: 2450 nM; IC50 [5]: 2580 nM
26 | O=C(CCCCCC(=O)NCc1cc(C(=O)NCc2ccccc2)c2cc(-c3ccccc3)ccc2n1)NO | 341 | –
27 | O=C(CCCCCC(=O)NCc1ccc2cc(-c3ccccc3)ccc2n1)NO | 152 | –
